Test results taken from patent US12246002B2, “Pharmaceutical composition for prevention or treatment of circadian rhythm-related disorders, comprising oxyiminomethylbenzene derivative as active ingredient” (KOREA UNIVERSITY RESEARCH AND BUSINESS FOUNDATION, priority 2018, dated 2025).

What was measured:
CLOCK:BMAL1 dimer = test: E-box-LUC reporter assay of transcriptional activity of CLOCK:BMAL1 dimer in NIH-3T3 fibroblast line; type: cell-based; settings: NIH-3T3 E-box-LUC cells; for Max (%) maximum activity of E-box-LUC reporter compared to the control group: four parameter logistic fit, DMSO control
Description: The NIH-3T3 fibroblast line (Non-patent document 6) expressing the E-box-LUC reporter was used to evaluate the effect of the oxyiminomethylbenzene derivative on the transcriptional activity of the CLOCK:BMAL1 dimer mediated by E-box. Reporter-expressing fibroblast line was maintained and cultured in an incubator in a humidified state at 5% carbon dioxide and 37 degrees Celsius, using Dulbecco's modified eagles medium (Invitrogen) having 10% fetal bovine serum, 1% penicillin/streptomycin (Invitrogen) and 1% L-glutamine added thereto.
(§1) The reporter-expressing cell line was dispensed and cultured in a 48-well culture plate 24 hours before compound treatment. The cultured cells were finally treated with a compound to a concentration of 0.1, 0.3, 1.0, 3.0, 10, 30 or 100 μM. As a control group (0 μM), cells treated with the same amount of dimethyl sulfoxide (DMSO) were used. After 36 hours elapsed after treatment of the compound, the cells were washed twice with 1× D-PBS, and was lysed for 15 minutes using 100 μl of a cell lysis buffer (Promega) per well. After reacting a 20 μl sample of the lysate with the same amount of a luciferase assay reagent (Promega), the luciferase activity was measured using a luminometer (TD-20/20 Luminometer, Turner systems). The measured luciferase activity was corrected based on the protein content of the lysate. The protein content was measured using a Bradford staining reagent from Bio-rad.
(§2) The concentration-response correlation for each derivative was converted to a standard curve using Four Parameter Logistic Equation. The calculation process utilized the statistical analysis function provided by SigmaPlot 10.0 ([…], Systat Software Inc.). Based on the concentration-response curve, the maximum activity (Max) and EC50 values of each derivative were calculated and input in [Table 1]. When the compound induces cell death, cytotoxicity (Tox.) was input to the EC50 field. The concentration-reaction correlation curves of compounds of Chemical Formula 8-9, 9-9, 8-10 and 9-10 as a representative example are shown in FIG. 1.

NIH-3T3 fibroblast line = test: Cytotoxicity (cell death) seen in the E-box-LUC reporter assay; type: cell-based; settings: for cytotoxicity (Tox.) input to the EC50 field when the compound induces cell death: NIH-3T3 E-box-LUC cells, 0.1-100 μM, 36 hours
Description: as §1, §2

PER2-LUC fusion protein = test: Circadian rhythm expression of PER2-LUC fusion protein in PER2-LUC knock-in fibroblasts (real-time bioluminescence, Cosinor analysis); type: cell-based, mouse; settings: 20 μM, PER2-LUC KI fibroblasts, FIG. 3; for amplitude of the circadian rhythm expression of the PER2-LUC fusion protein: DEX synchronized, up to 5 days
Description: The effects of the compounds (8-9 and 8-10) prepared in Example 1 on the circadian rhythm expression of the molecular biological clock whose the cells are expressed through inhibition of CRY and enhancement of transcriptional activity of CLOCK:BMAL1 were evaluated. To this end, a mutant fibroblast line (PER2-LUC knock-in fibroblast) was used in which a PER2-LUC fusion protein is expressed via linking the luciferase gene from the position where the stop codon of the PER2 gene is located. The cell line was established from lung tissue of PER2-LUC knock-in mutant mice (Non-patent document 31) 1 week after birth. PER2-LUC knock-in (KI) fibroblasts was maintained and cultured in the incubator under a humidified state at 5% carbon dioxide and 37 degrees Celsius using Dulbecco's modified Eagle medium supplemented with 10% serum, 1% penicillin/streptomycin, and 1% L-glutamine.
After treating the cultured cells with 200 nM dexamethasone (DEX) for 2 hours for synchronization, the DEX was replaced with a medium including the substrate of luciferase that is, luciferin (final concentration 0.1 mM) with 20 μM of the compound of Chemical Formula 8-9 or 8-10. As a control group, cells (VEH) treated with the same amount of dimethyl sulfoxide instead of the compound were used. As another comparative group, the cells treated with a 2-ethoxypropionic acid-based CRY inhibitor (Non-patent document 6), that is, KS15 (final concentration 20 μM) was used. The control and the KS15-treated cells were also replaced with a medium including luciferin of the same concentration.
Bioluminescence signals generated from cells cultured in a medium including the compound and luciferin were continuously measured for up to 5 days at 10-minute intervals using a real-time bioluminescence measurement equipment (Kronos-DIO, ATTO). The results were identified through statistical detrending. The circadian rhythm expression pattern of the PER2-LUC fusion protein was analyzed using the Cosinor analysis program (free distribution on http://www.circadian.org) to determine the amplitude, period, and robustness of the periodicity. Based on the results obtained through 4 replicate experiments, the statistical significance of the change according to compound treatment was verified.

| SMILES | Max (%) maximum activity of E-box-LUC reporter compared to the control group (CLOCK:BMAL1 dimer; 0.1-100 μM, 36 hours) [%] | further results |
| --- | --- | --- |
| COC(=O)COc1cccc(C(C)=NOCc2cccc(C(F)(F)F)c2)c1 [Compound 8-1, methyl 2-{3-[N-{[3-(trifluoromethyl)phenyl]methoxy}ethanimidoyl]phenoxy}acetate] | – | EC50 (CLOCK:BMAL1 dimer; 0.1-100 μM, 36 hours): 27.4 µM |
| COC(=O)COc1cccc(C(C)=NOCc2ccc(Br)cc2)c1 [Compound 8-5, methyl 2-(3-{N-[(4-bromophenyl)methoxy]ethanimidoyl}phenoxy)acetate] | – | cytotoxicity (Tox.) input to the EC50 field when the compound induces cell death (NIH-3T3 fibroblast line): (Tox.) |
| CC(=NOCc1ccc(Br)cc1)c1cccc(OCC(=O)O)c1 [Compound 8-6, (3-{N-[(4-bromophenyl)methoxy]ethanimidoyl}phenoxy)acetic acid] | 123.78 | cytotoxicity (Tox.) input to the EC50 field when the compound induces cell death (NIH-3T3 fibroblast line): (Tox.) |
| CC(=NOCc1ccc(Br)cc1)c1cccc(OCC(=O)NCc2ccccn2)c1 [Compound 8-7, 2-{3-[N-(4-bromophenyl)methoxyethanimidoyl]phenoxy}-N-[(pyridin-2-yl)methyl]acetamide] | 129.69 | – |
| CC(=NOCc1ccc(Br)cc1)c1cccc(OCC(=O)NCCc2ncc[nH]2)c1 [Compound 8-8, 2-{3-[N-(4-bromophenyl)methoxyethanimidoyl]phenoxy}-N-[2-(1H-imidazol-2-yl)ethyl]acetamide] | 121.10 | cytotoxicity (Tox.) input to the EC50 field when the compound induces cell death (NIH-3T3 fibroblast line): (Tox.) |
| COC(=O)COc1cccc(C(C)=NOCc2ccc([N+](=O)[O-])cc2)c1 [Compound 8-9, methyl 2-(3-{N-[(4-nitrophenyl)methoxy]ethanimidoyl}phenoxy)acetate] | – | cytotoxicity (NIH-3T3 fibroblast line; at up to 100 μM): No significant cytotoxicity; amplitude of the circadian rhythm expression of the PER2-LUC fusion protein (PER2-LUC fusion protein): increases the amplitude of the circadian rhythm expression of the PER2-LUC fusion protein at a significant level; period of the circadian rhythm expression of the PER2-LUC fusion protein (PER2-LUC fusion protein): not affecting the period; robustness of the circadian rhythm expression of the PER2-LUC fusion protein (PER2-LUC fusion protein): not affecting the period or robustness; activity of E-box-LUC (concentration-response, FIG. 1) (CLOCK:BMAL1 dimer): increase the activity of E-box-LUC in a concentration-dependent manner |
| CC(=NOCc1ccc([N+](=O)[O-])cc1)c1cccc(OCC(=O)O)c1 [Compound 8-10, (3-{N-[(4-nitrophenyl)methoxy]ethanimidoyl}phenoxy)acetic acid] | – | amplitude of the circadian rhythm expression of the PER2-LUC fusion protein (PER2-LUC fusion protein): increases the amplitude of the circadian rhythm expression of the PER2-LUC fusion protein at a significant level; period of the circadian rhythm expression of the PER2-LUC fusion protein (PER2-LUC fusion protein): not affecting the period; robustness of the circadian rhythm expression of the PER2-LUC fusion protein (PER2-LUC fusion protein): not affecting the period or robustness; activity of E-box-LUC (concentration-response, FIG. 1) (CLOCK:BMAL1 dimer): increase the activity of E-box-LUC in a concentration-dependent manner |
| CC(=NOCc1ccc(S(C)(=O)=O)cc1)c1cccc(OCC(=O)O)c1 [Compound 8-12, {3-[N-{[4-(methanesulfonyl)phenyl]methoxy}ethanimidoyl]phenoxy}acetic acid] | 98.71 | – |
| COC(=O)COc1cccc(C(C)=NOCc2ccc(F)cc2)c1 [Compound 8-13] | 119.93 | cytotoxicity (Tox.) input to the EC50 field when the compound induces cell death (NIH-3T3 fibroblast line): (Tox.) |
| COC(=O)COc1ccc(C(C)=NOCc2cccc(C(F)(F)F)c2)cc1 [Compound 9-1, methyl 2-{4-[N-{[3-(trifluoromethyl)phenyl]methoxy}ethanimidoyl]phenoxy}acetate] | 107.89 | – |
| CC(=NOCc1cccc(C(F)(F)F)c1)c1ccc(OCC(=O)O)cc1 [Compound 9-2, {4-[N-{[3-(trifluoromethyl)phenyl]methoxy}ethanimidoyl]phenoxy}acetic acid] | 115.15 | – |
| COC(=O)COc1ccc(C(C)=NOCc2ccc(OC)cc2)cc1 [Compound 9-3, methyl 2-(4-{N-[(4-methoxyphenyl)methoxy]ethanimidoyl}phenoxy)acetate] | 103.87 | – |
| COc1ccc(CON=C(C)c2ccc(OCC(=O)O)cc2)cc1 [Compound 9-4, (4-{N-[(4-methoxyphenyl)methoxy]ethanimidoyl}phenoxy)acetic acid] | 102.65 | – |
| COC(=O)COc1ccc(C(C)=NOCc2ccc(Br)cc2)cc1 [Compound 9-5, methyl 2-(4-{N-[(4-bromophenyl)methoxy]ethanimidoyl}phenoxy)acetate] | 111.88 | – |
| CC(=NOCc1ccc(Br)cc1)c1ccc(OCC(=O)O)cc1 [Compound 9-6, (4-{N-[(4-bromophenyl)methoxy]ethanimidoyl}phenoxy)acetic acid] | 106.70 | – |
| CC(=NOCc1ccc(Br)cc1)c1ccc(OCC(=O)NCc2ccccn2)cc1 [Compound 9-7, 2-{4-[N-(4-bromophenyl)methoxyethanimidoyl]phenoxy}-N-[(pyridin-2-yl)methyl]acetamide] | 135.47 | – |
| CC(=NOCc1ccc(Br)cc1)c1ccc(OCC(=O)NCCc2ncc[nH]2)cc1 [Compound 9-8, 2-{4-[N-(4-bromophenyl)methoxyethanimidoyl]phenoxy}-N-[2-(1H-imidazol-2-yl)ethyl]acetamide] | 120.89 | – |
| COC(=O)COc1ccc(C(C)=NOCc2ccc([N+](=O)[O-])cc2)cc1 [Compound 9-9, methyl 2-(4-{N-[(4-nitrophenyl)methoxy]ethanimidoyl}phenoxy)acetate] | 113.52 | – |
| CC(=NOCc1ccc([N+](=O)[O-])cc1)c1ccc(OCC(=O)O)cc1 [Compound 9-10, (4-{N-[(4-nitrophenyl)methoxy]ethanimidoyl}phenoxy)acetic acid] | 108.43 | – |
| COC(=O)COc1ccc(C(C)=NOCc2ccc(S(C)(=O)=O)cc2)cc1 [Compound 9-11, methyl 2-{4-[N-{[4-(methanesulfonyl)phenyl]methoxy}ethanimidoyl]phenoxy}acetate] | 100.39 | – |
| CC(=NOCc1ccc(S(C)(=O)=O)cc1)c1ccc(OCC(=O)O)cc1 [Compound 9-12, {4-[N-{[4-(methanesulfonyl)phenyl]methoxy}ethanimidoyl]phenoxy}acetic acid] | 111.38 | – |
